In brackets after ≈: the same amount, converted by molar mass. Several values for one entry are separate records, joined by “and”; a condition that tells them apart may be missing. Identical values can stand only once.
Legend:
Bacillus anthracis = format: cell-based
[1] = system: Staphylococcus epidermidis (12228); assay: MIC, NCCLS broth microdilution; format: cell-based; settings: Staphylococcus epidermidis (12228)
[2] = system: Propionibacterium acnes (33179)
[3] = system: Clostridium perfringens (13124)
Esherichia coli (25922) = assay: MIC, NCCLS broth microdilution; format: cell-based, Escherichia coli; settings: Escherichia coli (25922)
Bacillus cereus (11778) [4] = assay: MIC, NCCLS broth microdilution; format: cell-based; settings: Bacillus cereus (11778)
[5] = system: Paecilomyces variotii (22319); assay: MIC, antifungal assay; format: cell-based
Bacillus subtilis (6633) [6] = assay: MIC, NCCLS broth microdilution; format: cell-based; settings: Bacillus subtilis (6633)
[7] = system: Staphylococcus aureus (29213); assay: MBC according to NCCLS guideline; format: cell-based
[8] = system: Saccharomyces cerevisiae (44773); assay: MIC, antifungal assay; format: cell-based
[9] = system: different species of bacteria and fungi; settings: exception: Gram-negative bacteria such as Escherichia and Pseudomonas
AATACT = assay: DNase I footprint titration, AATACT site; format: binding; settings: equilibrium association constant Ka; pH 7.0, 22° C.
[10] = system: Staphylococcus aureus (29213); assay: MIC, NCCLS broth microdilution; format: cell-based; settings: Staphylococcus aureus (29213)
ACTACT = assay: DNase I footprint titration, ACTACT site; format: binding; settings: equilibrium association constant Ka; pH 7.0, 22° C.
[11] = system: Enterococcus faecium (51559) (vacomycin resistant); settings: vancomycin resistant
[12] = system: Staphylococcus epidermidis (12228)
[13] = system: Clostridium perfringens (13124); assay: microbe, parasite or virus in culture; format: cell-based; settings: Clostridium perfringens (13124), anaerobe
[14] = system: Enterococcus faecium (51559) (vacomycin resistant); assay: MIC, NCCLS broth microdilution; format: cell-based; settings: Enterococcus faecium (51559), vancomycin resistant
Candida albicans (90028) [15] = assay: MBC according to NCCLS guideline; format: cell-based
[16] = system: Listeria monocytogenes (19115); assay: MIC, NCCLS broth microdilution; format: cell-based
[17] = system: Corynebacterium Group A (49676)
[18] = system: Enterococcus faecalis (29212); assay: MIC, NCCLS broth microdilution; format: cell-based; settings: Enterococcus faecalis (29212)
[19] = system: Saccharomyces cerevisiae (44773); assay: MBC according to NCCLS guideline; format: cell-based
[20] = system: Corynebacterium Group A (49676); assay: MIC, NCCLS broth microdilution; format: cell-based; settings: Corynebacterium Group A (49676)
[21] = system: Haemophilus influenzae (49247); assay: MIC, NCCLS broth microdilution; format: cell-based; settings: Haemophilus influenzae (49247)
[22] = system: Candida albicans (38247) (Polyene resistant); assay: MIC, antifungal assay; format: cell-based
Bacillus subtilis (6633) [23] = system: Bacillus subtilis (6633)
[24] = system: Streptococcus pneumoniae (49619); assay: MIC, NCCLS broth microdilution; format: cell-based; settings: Streptococcus pneumoniae (49619)
[25] = system: Trichophyto tonsurans (28942); assay: MIC, antifungal assay; format: cell-based
[26] = system: Pseudomona aeruginosa (27853); assay: MIC, NCCLS broth microdilution; format: cell-based; settings: Pseudomona aeruginosa (27853)
Fusarium solani (36031) = assay: MIC, antifungal assay; format: cell-based
Bacillus cereus (11778) [27] = assay: MBC according to NCCLS guideline; format: cell-based
[28] = system: Enterococcus faecalis (29212); assay: MBC according to NCCLS guideline; format: cell-based
ATTACT = assay: DNase I footprint titration, ATTACT site; format: binding; settings: equilibrium association constant Ka; pH 7.0, 22° C.
[29] = system: Peptostreptococcus asaccharolytics (29743); assay: MIC, NCCLS broth microdilution; format: cell-based; settings: anaerobe
[30] = system: Streptococcus pyogenes (49339); assay: MIC, NCCLS broth microdilution; format: cell-based; settings: Streptococcus pyogenes (49339); Table Ia: Streptococcus Group A(49339)
[31] = system: Staphylococcus aureus (33591) (methicillin resistant); assay: MIC, NCCLS broth microdilution; format: cell-based; settings: Staphylococcus aureus (33591), methicillin resistant (MRSA)
[32] = system: Peptostreptococcus asaccharolytics (29743)
[33] = system: Aspergillus niger (10535); assay: MIC, antifungal assay; format: cell-based
[34] = system: Streptococcus pneumoniae (49619); assay: MBC according to NCCLS guideline; format: cell-based
[35] = system: Streptococcus pneumoniae (51422) (multiple drug resistant); assay: MIC, NCCLS broth microdilution; format: cell-based
AGTACT = assay: DNase I footprint titration, AGTACT site; format: binding; settings: equilibrium association constant Ka; pH 7.0, 22° C.
all species tested = assay: Microbicidal activity (MIC versus MBC), all species tested; format: cell-based; settings: in words; from difference between MICs and MBCs
Text: The minimal bactericidal concentration (MBC) has been determined for some of these designed compounds according to NCCLS guideline (Lorian, V. 1996 Antibiotics in laboratory medicine (The Williams & Wilkins Co., Baltimore, Md.)). The difference between the MICs and the MBCs has been established as an index of the bactericidal activity of an antibiotic.

[36] = system: Staphylococcus aureus (33591) (methicillin resistant)
[37] = system: Propionibacterium acnes (33179); assay: MIC, NCCLS broth microdilution; format: cell-based; settings: anaerobe
Candida albicans (90028) [38] = assay: MIC, antifungal assay; format: cell-based
[39] = system: Streptococcus pyogenes (49339)

Work on CN(C)CCCNC(=O)c1cc(NC(=O)c2cc(NC(=O)c3cc(NC(=O)c4nsc(NCCCCN)c4Cl)cn3C)cn2C)cn1C [V-a] yielded an MIC (Bacillus anthracis) of 4 µg/mL (≈ 5.71 µM), an MIC [1] of 1 µg/mL (≈ 1.43 µM) and an MBC [2] of 8 µg/mL (≈ 11.4 µM). For the same compound, the MBC [3] was 2 µg/mL (≈ 2.86 µM), the MIC (Esherichia coli (25922)) was greater than 128 µg/mL and the MIC (Bacillus cereus (11778) [4]) was 0.25 µg/mL (≈ 0.357 µM). The MIC [5] was 0.5 µg/mL (≈ 0.714 µM), the MIC (Bacillus subtilis (6633) [6]) was 0.25 µg/mL and 0.25 to 0.5 µg/mL and the MBC [7] was 2 µg/mL (≈ 2.86 µM). The MBC (Micrococcus luteus (381)) was 0.5 µg/mL (≈ 0.714 µM), the MIC [8] was 8 µg/mL (≈ 11.4 µM) and the “MIC for most species tested” value [9] was “less than 8 μg/mL”. The “Binding Constant, sequence AATACT” value (AATACT) was 1e+08 M⁻¹, the MIC [10] was 2 µg/mL (≈ 2.86 µM) and the “Binding Constant, sequence ACTACT” value (ACTACT) was 1e+08 M⁻¹. It also gave an MBC [11] of 2 to 4 µg/mL, an MBC [12] of 1 µg/mL (≈ 1.43 µM) and an MIC [13] of 1 µg/mL (≈ 1.43 µM). The MIC [14] was 1 µg/mL (≈ 1.43 µM), the MBC (Candida albicans (90028) [15]) was 4 µg/mL (≈ 5.71 µM) and the MIC [16] was 4 µg/mL (≈ 5.71 µM). The MBC [17] was 0.25 µg/mL (≈ 0.357 µM), the MIC [18] was 1 µg/mL (≈ 1.43 µM) and the MBC [19] was 8 µg/mL (≈ 11.4 µM). The MIC [20] was 0.25 µg/mL and 0.25 to 0.5 µg/mL, the MIC [21] was 32 µg/mL (≈ 45.7 µM) and the MIC [22] was 4 µg/mL (≈ 5.71 µM). It also gave an MBC (Bacillus subtilis (6633) [23]) of 0.5 µg/mL (≈ 0.714 µM), an MIC [24] of 0.5 µg/mL (≈ 0.714 µM) and an MIC [25] of 16 µg/mL (≈ 22.8 µM). It also gave an MIC [26] greater than 128 µg/mL, an MIC (Fusarium solani (36031)) of 4 µg/mL (≈ 5.71 µM) and an MBC (Bacillus cereus (11778) [27]) of 0.5 µg/mL (≈ 0.714 µM). For the same compound, the MBC [28] was greater than 4 µg/mL, the “Binding Constant, sequence ATTACT” value (ATTACT) was 1e+08 M⁻¹ and the MIC [29] was 0.125 µg/mL (≈ 0.179 µM). For the same compound, the MIC [30] was 0.125 µg/mL (≈ 0.179 µM), the MIC [31] was 2 µg/mL (≈ 2.86 µM) and the MBC [32] was 0.25 µg/mL (≈ 0.357 µM). It also gave an MIC [33] of 2 µg/mL (≈ 2.86 µM), an MBC [34] of 0.5 µg/mL (≈ 0.714 µM) and an MIC [35] of 8 µg/mL (≈ 11.4 µM). For the same compound, the “Binding Constant, sequence AGTACT” value (AGTACT) was 3e+09 M⁻¹, the Microbicidal activity (all species tested) was “microbicidal agents for all species tested” and the MBC [36] was 4 µg/mL (≈ 5.71 µM). For the same compound, the MIC [37] was 2 µg/mL and 4 µg/mL, the MIC (Candida albicans (90028) [38]) was 4 µg/mL (≈ 5.71 µM) and the MBC [39] was 0.125 µg/mL (≈ 0.179 µM).
